These results are taken from PubChem BioAssay (NCI).

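Results reflect a 48-hour exposure of cells in 96-well plates to compound at five concentrations. The concentration for 50% growth inhibition is given as GI50. TGI marks complete inhibition of growth.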 Bounds are passed on as bounds.

Test in all cases: DTP human tumour cell line panel, 48 h
Assay [1] relates to MDA-MB-435.
Assay [2] relates to UACC-257 melanoma.
Assay [3] has as its system NCI/ADR-RES ovarian.
For assay [4], the system named is UO-31 renal.
Assay [5] relates to OVCAR-4 ovarian.
In assay [6] the test system is OVCAR-8 ovarian.
Assay [7] relates to HS 578T breast.
Assay [8] relates to SN12C renal.
Assay [9] concerns DU-145 prostate.
Assay [10] concerns HT29 colon.

In the case of `C[C@H](CCOc1cccc(CC(=O)O)c1)N(Cc1cccc(C(F)(F)F)c1Cl)CC(c1ccccc1)c1ccccc1`, the GI50 – broadly, the concentration that inhibits growth by half – in [1] was 7.02 µM; in assay [2], 10.2 µM; in assay [3], 6.97 µM; in assay [4], 2.36 µM; in assay [5], 5.26 µM; in assay [6], 5.83 µM. The GI50 in assay [7] is 3.79 µM; in [8] it was 5.33 µM; in [9], 7.89 µM; in assay [10] it was 4.43 µM. In addition, the concentration for total growth inhibition (TGI) (commonly the concentration at which net growth stops) in assay [1] was 20.2 µM; in [2] it was 25.2 µM; in assay [3], 21.3 µM; in [4] it was 14.7 µM; in assay [5] it was 21.9 µM; in [6] it was 25.6 µM. Further, the TGI in assay [7] came out at 20.7 µM; in assay [8], 18.7 µM; in assay [9] it was 20.4 µM; in assay [10], 22.9 µM.

In the case of `CCOC(=O)c1c(C)c2c(n1Cc1ccccc1)CSCC2=O`, the GI50 in [1] is 17.3 µM; in [2] it was 26.9 µM; in assay [3] it was 16.7 µM; in [4] it was 13.5 µM; in assay [5], 17.4 µM; in assay [6] it was 27.6 µM. Also, the GI50 is 10.8 µM in assay [7], 26 µM in assay [8], 21.9 µM in assay [9] and 18.7 µM in assay [10]. The TGI in [1] was 39.1 µM; in assay [2], 94.1 µM; in assay [3], 51.4 µM; in assay [4] it was greater than 100 µM; in assay [5], greater than 100 µM; in [6], greater than 100 µM. Also, the TGI is 53.3 µM in assay [7], greater than 100 µM in [8], greater than 100 µM in assay [9] and greater than 100 µM in assay [10].

Turning to `COc1cc2c(cc1OCCCN1CCN(CCCOc3cc4c(cc3OC)C(=O)N3CC(F)(F)C[C@H]3C=N4)CC1)N=C[C@@H]1CC(F)(F)CN1C2=O`, the GI50 in [1] was 2.94 µM; in assay [2], 15.3 µM; in assay [3], 25.2 µM; in [4], 11.4 µM; in assay [5], 12.7 µM; in [6] it was 6.3 µM. The GI50 in assay [7] is 2.32 µM; in [8], 4.05 µM; in [9] it was 3.63 µM; in assay [10], 3.61 µM. Moreover, the total growth inhibition concentration (TGI) in [1] turned out to be 11.1 µM; in assay [2], 31.6 µM; in assay [3] it was 72.9 µM; in [4], 25.7 µM; in [5], 33.7 µM; in [6], 26.7 µM. For the same molecule, the TGI in assay [7] is 9.55 µM; in assay [8], 19.5 µM; in assay [9], 13.3 µM; in assay [10], greater than 100 µM.

Take `CCSc1nc(N=Cc2ccccc2O)c2cn[nH]c2n1`: the GI50 in assay [1] is 19.7 µM; in assay [2], 56.7 µM; in [3] it was 20.3 µM; in assay [4], 61.6 µM; in assay [5] it was 35 µM; in [6], 48.8 µM. In addition, the GI50 is 20.9 µM in assay [7], 26.3 µM in assay [8], 72.1 µM in assay [9] and 30.7 µM in assay [10]. Besides, the TGI in [1] was 72.8 µM; in assay [2], greater than 100 µM; in assay [3], 63.6 µM; in [4] it was greater than 100 µM; in assay [5] it was greater than 100 µM; in assay [6], greater than 100 µM. The concentration for total growth inhibition (TGI) in assay [7] was 69.2 µM; in [8], 95.1 µM; in [9], greater than 100 µM; in assay [10] it was greater than 100 µM.

For the molecule `NNc1ncnc2nc[nH]c12`, the GI50 is 5.57 µM in assay [1]; 57.6 µM in assay [2]; 3.37 µM in [3]; 2.48 µM in assay [4]; 3.79 µM in assay [5]; 5.09 µM in [6]. For the same molecule, the GI50 in [7] was 7.71 µM; in assay [8] it was 7.33 µM; in [9], 3.29 µM; in assay [10], 4.36 µM. Also, the concentration for total growth inhibition (TGI) in assay [1], in [2], in [3], in [4], in assay [5] and in assay [6] was greater than 100 µM in each case. Further, the TGI in assay [7] was greater than 70 µM; in assay [8], greater than 100 µM; in assay [9], 67.8 µM; in assay [10], greater than 100 µM.

Take `CCCCCCCCSC1=C(Cl)C(=O)C(OC)=C(OC)C1=O`: the TGI is 35.4 µM in [1]; 21.4 µM in assay [2]; greater than 100 µM in assay [3]; 25.7 µM in assay [4]; 29.8 µM in [5]; 30.9 µM in assay [6]. Besides, the total growth inhibition concentration (TGI) in assay [7] stood at 66.6 µM; in [8], 18.4 µM; in assay [9] it was 40.5 µM; in [10], 34.8 µM.

As to `C=CC12CCN(CC1)C(C(O)c1ccnc3ccc(OC)cc13)C2` (stereo not drawn), the GI50 was greater than 100 µM in [1]; 74.2 µM in assay [2]; greater than 100 µM in [3]; 39.7 µM in assay [4]; greater than 100 µM in assay [5]; greater than 100 µM in assay [6]. Besides, the GI50 was greater than 100 µM in assay [7], greater than 100 µM in assay [8], greater than 100 µM in assay [9] and 61.9 µM in [10]. Also, the total growth inhibition concentration (TGI) in assay [1], in assay [2], in [3], in assay [4], in assay [5] and in [6] was greater than 100 µM throughout. Further, the total growth inhibition concentration (TGI) in [7], in assay [8], in assay [9] and in assay [10] was greater than 100 µM each time.

Take `O=c1[nH]c(O)c(C=Nc2ccc(-c3nc4ccccc4o3)cc2)c(=O)[nH]1`: the GI50 in [1] was 33.3 µM; in assay [2], 58.4 µM; in assay [3], 3.56 µM; in assay [4], 82.4 µM; in assay [5], 33 µM; in assay [6], 25.8 µM. Besides, the GI50 in assay [7], in [8] and in [9] was greater than 100 µM in each case. In addition, the concentration for total growth inhibition (TGI) in assay [1] is greater than 100 µM; in assay [2], greater than 100 µM; in assay [3], 9.59 µM; in [4], greater than 100 µM; in assay [5], greater than 100 µM; in [6] it was greater than 100 µM. The TGI in assay [7], in [8] and in assay [9] was greater than 100 µM throughout.

`O=c1[nH]c(-c2cccc(F)c2)cc2cc(F)ccc12`: the GI50 in [1] is 0.0279 µM; in [2], greater than 100 µM; in [3], 0.268 µM; in assay [4], 1.65 µM; in assay [5], greater than 90.9 µM; in assay [6], 0.951 µM. The GI50 is 0.381 µM in assay [7], 1.31 µM in [8], 0.507 µM in assay [9] and 0.261 µM in [10]. The TGI is 0.0797 µM in [1]; greater than 100 µM in assay [2]; greater than 100 µM in assay [3]; greater than 100 µM in assay [4]; greater than 100 µM in [5]; greater than 100 µM in assay [6]. The TGI in assay [7] was greater than 72.8 µM; in assay [8], greater than 100 µM; in assay [9], greater than 100 µM; in assay [10] it was greater than 100 µM.

For `C=C(CN(C)Cc1ccccc1)c1ccc(NC(=O)c2ccc(C(=C)CN(C)Cc3ccccc3)cc2)cc1`, the GI50 was greater than 100 µM in assay [1]; greater than 100 µM in assay [2]; 34.8 µM in assay [3]; 76.2 µM in [4]; 17.6 µM in [5]; 45.3 µM in assay [6]. Also, the GI50 was 40 µM in [7], greater than 100 µM in assay [8], 71.6 µM in assay [9] and greater than 100 µM in assay [10]. In addition, the TGI is greater than 100 µM in assay [1]; greater than 100 µM in assay [2]; greater than 100 µM in assay [3]; greater than 100 µM in assay [4]; 38.6 µM in assay [5]; greater than 100 µM in [6]. Besides, the TGI in [7], in assay [8], in assay [9] and in assay [10] was greater than 100 µM throughout.

With `COc1c(C)c(OCC=C(C)C)cc(CO)c1CO`, the concentration for total growth inhibition (TGI) in assay [1], in assay [2], in assay [3], in assay [5], in assay [6] and in [7] was greater than 100 µM each time. In addition, the concentration for total growth inhibition (TGI) in assay [8], in assay [9] and in assay [10] was greater than 100 µM in each case.

As for `CNc1cc2oc(=O)cc(C)c2cc1C`, the TGI in assay [1], in assay [2], in assay [3], in assay [5], in assay [6] and in assay [7] was greater than 100 µM in each case. The TGI in assay [8], in [9] and in assay [10] was greater than 100 µM in each case.

Take `CNCCCNc1ccnc2cc(Cl)ccc12`: the GI50 in [1] was 14.4 µM; in [3], 34.4 µM; in assay [4] it was 12.8 µM; in assay [5], 18.7 µM; in assay [6], 28.3 µM; in assay [7], 20.8 µM. For the same molecule, the figures for the GI50 in assay [8], in assay [9] and in assay [10] were 24.6 µM, 17.3 µM and 13.4 µM, respectively. Moreover, the TGI in assay [1] was 28.4 µM; in assay [3], greater than 100 µM; in assay [4], 47.7 µM; in [5], 57.4 µM; in assay [6], greater than 100 µM; in assay [7] it was 78 µM. Moreover, the total growth inhibition concentration (TGI) in assay [8] is greater than 100 µM; in [9], 38.5 µM; in [10] it was 55.5 µM.

Take `Cc1cccc(NC2=C(Cl)C(=O)c3nc(C)ccc3C2=O)c1`: the 50% growth inhibitory concentration (GI50) in [1] is 0.218 µM; in assay [2], 1.63 µM; in assay [3] it was 1.58 µM; in assay [4], 1.29 µM; in assay [5], 1.2 µM; in assay [7], 1.68 µM. The GI50 in [8] was 1.17 µM; in [9] it was 1.27 µM; in [10], 2.94 µM. Also, the TGI came out at 0.469 µM in assay [1]; 3.12 µM in assay [2]; 4.14 µM in assay [3]; 2.59 µM in assay [4]; 2.45 µM in [5]; 4.58 µM in assay [7]. In addition, the concentration for total growth inhibition (TGI) worked out at 2.5 µM in [8], 2.55 µM in assay [9] and 11.9 µM in assay [10].

In the case of `COc1ccc(-c2c(C#N)c(N3CCOCC3)nc3[nH]c(=S)[nH]c(=S)c23)cc1OC`, the GI50 was 54.8 µM in [1]; greater than 100 µM in assay [2]; 56.6 µM in assay [3]; 82.1 µM in [4]; 76.6 µM in assay [5]; 34.5 µM in assay [6]. Besides, the GI50 is 47.3 µM in [7], 21.7 µM in [8] and 58.7 µM in [9]. In addition, the total growth inhibition concentration (TGI) in assay [1], in assay [2], in [3], in assay [4], in assay [5] and in assay [6] was greater than 100 µM in each case. Moreover, the figures for the TGI in assay [7], in assay [8] and in [9] were greater than 100 µM, 91.3 µM and greater than 100 µM, respectively.

`NCCCn1c2c(c3ccc([N+](=O)[O-])cc3c1=O)C(=O)c1cc(I)ccc1-2`: the GI50 in [1] was 0.223 µM; in [2], 1.1 µM; in [3], 0.0416 µM; in assay [4], 0.0273 µM; in [6], 0.0268 µM; in assay [7], 1.98 µM. For the same molecule, the GI50 in [8] is less than 0.0234 µM; in assay [9] it was less than 0.01 µM; in [10], 0.0951 µM. Moreover, the total growth inhibition concentration (TGI) was determined as 1.85 µM in assay [1]; 2.55 µM in assay [2]; 1.88 µM in [3]; 1.5 µM in [4]; 0.234 µM in assay [6]; 4.33 µM in [7]. Also, the total growth inhibition concentration (TGI) in assay [8] was 1.78 µM; in [9] it was 0.118 µM; in [10] it was 0.352 µM.
